Patent publication US20250179103A1, “6-OXODECAHYDROPYRROLO[1,2-A][1,5]DIAZOCINE AND 6-OXODECAHYDRO-4H-PYRROLO[2,1-D][1,5]THIAZOCINE DERIVATIVES AS STAT3 AND STAT6 MODULATORS FOR THE TREATMENT OF CANCER AND INFLAMMATORY CONDITIONS” (Recludix Pharma, Inc., priority 2022, published 2025)

test system: pY641-STAT6 in Peripheral Blood Mononuclear Cells (PBMC); assay: MSD-pSTAT-PBMC Assay (pSTAT6, IL-4 stimulated); type: cell-based, Human; settings: Homo sapiens, compound 3 hrs, then 1 ng/mL IL-4 for 10 min
Description: Cryopreserved Peripheral Blood Mononuclear Cells (PBMC) are from AllCells. Recombinant Human IL-4 and IL-6 are from Peprotech. Mouse monoclonal anti-STAT3 antibody, rabbit monoclonal anti-pY705-STAT3 antibody, rabbit monoclonal Anti-pY641-STAT6 antibody, and lysis buffer are from Cell Signaling Technology (CST). Mouse monoclonal anti-STAT6 antibody is from BioLegend. Assay plates, blocker, and anti-rabbit secondary antibody are from Meso Scale Discovery (MSD).
Cryopreserved PBMCs were thawed out and allowed to recover overnight in IMDM+10% heat-inactivated FBS prior to plating 50,000 (STAT3) or 25,000 (STAT6) cells per well in 96-well U-bottom tissue culture plates. Cells were treated with compound for 3 hrs, then stimulated with 10 ng/mL IL-6 (STAT3) or 1 ng/mL IL-4 (STAT6) for 10 min. Cells were then spun down and washed with ice-cold PBS prior to lysing the cell pellet with 1× lysis buffer (CST) with 1×HALT protease and phosphatase inhibitor cocktail (Thermo). Lysates were transferred to and incubated overnight at 4° C. with shaking in QuickPlex 96-well high bind assay plates (MSD) pre-coated overnight with 30 μL per well of 0.6 μg/mL mouse monoclonal anti-STAT3 antibody (STAT3) or 2 μg/mL mouse monoclonal anti-STAT6 antibody (STAT6) in 1×PBS, and pre-blocked for 1 hour with 3% Blocker-A (MSD). Captured protein in the assay plates were then washed and probed with 25 μL per well of 0.25 μg/ml rabbit monoclonal anti-pY705-STAT3 antibody (STAT3) or […] rabbit monoclonal Anti-pY641-STAT6 antibody (STAT6) in 1% Blocker-A for 1 hour at room temperature with shaking, then washed and probed with 25 ul per well of 1 ug/ml Sulfo-TAG Labeled Goat Anti-Rabbit Antibody (MSD) in 1% Blocker-A for 1 hour at room temperature with shaking. Assay plates were then washed and 150 μL of 1× Read Buffer-T (MSD) was added to each well prior to reading on an SQ120 MSD Plate Reader. Assay signal from each sample was subtracted by the signal from unstimulated control wells and normalized to DMSO control wells. IC50 values were calculated using Graph Pad Prism Dose-Response Nonlinear Regression with variable slope. For both pSTAT3 and pSTAT6 A=≤100 nM; B=>100-1000 nM; C=>1000-3000 nM; and D=>3 μM.

First: CCCOC(=O)[C@H](C)NP(=O)(Oc1ccccc1)C(F)c1ccc2ccc(C(=O)N[C@H]3CN(C(=O)c4cc(Cl)c5nc(C)ccc5c4)CC[C@H]4CC[C@@H](C(=O)N5CCOCC5)N4C3=O)cc2c1 (stereo partly drawn) [Compound 407, propyl (((7-(((5S,8S,10aR)-3-(8-chloro-2-methylquinoline-6-carbonyl)-8-(morpholine-4-carbonyl)-6-oxodeca-hydropyrrolo [1,2-a][1,5]diazocin-5-yl)carbamoyl)naphthalen-2-yl)fluoromethyl) (phenoxy)phosphoryl)-L-alaninate]
Second: CCCOC(=O)[C@H](C)NP(=O)(Oc1ccccc1)C(F)c1ccc2ccc(C(=O)N[C@H]3CN(C(=O)c4noc5ccc(C)cc45)CC[C@H]4CC[C@@H](C(=O)N5CCN(S(C)(=O)=O)CC5)N4C3=O)cc2c1 (stereo partly drawn) [Compound 410, propyl ((fluoro(7-(((5S,8S,10aR)-3-(5-methylbenzo [d]isoxazole-3-carbonyl)-8-(4-(methylsulfonyl)piperazine-1-carbonyl)-6-oxodeca-hydropyrrolo [1,2-a][1,5]diazocin-5-yl)carbamoyl)naphthalen-2-yl)methyl) (phenoxy)phosphoryl)-L-alaninate]
The IC50 of the first is higher: 1000 to 3000 nM for the first, 100 to 1000 nM for the second.

CCCOC(=O)[C@H](C)NP(=O)(Cc1ccc2ccc(C(=O)N[C@H]3CN(C(C)=O)CC[C@H]4CC[C@@H](C(=O)N5CC(c6ccn(C)c(=O)c6)CC56CC6)N4C3=O)cc2c1)Oc1ccccc1 (stereo partly drawn) [Compound 408, propyl (((7-(((5S,8S,10aR)-3-acetyl-8-(6-(1-methyl-2-oxo-1,2-dihydropyridin-4-yl)-4-azaspiro [2.4]heptane-4-carbonyl)-6-oxodeca-hydropyrrolo [1,2-a] [1,5]diazocin-5-yl)carbamoyl)naphthalen-2-yl)methyl) (phenoxy)phosphoryl)-L-alaninate] and CCCOC(=O)[C@H](C)NP(=O)(Oc1ccccc1)C(F)c1ccc2ccc(C(=O)N[C@H]3CN(C(C)=O)CC[C@H]4CC[C@@H](C(=O)N5CCC(c6cccnc6)C5)N4C3=O)cc2c1 (stereo partly drawn) [Compound 409, propyl (((7-(((5S,8S,10aR)-3-acetyl-6-oxo-8-(3-(pyridin-3-yl)pyrrolidine-1-carbonyl)decahydropyrrolo [1,2-a] [1,5]diazocin-5-yl)carbamoyl)naphthalen-2-yl)fluoromethyl) (phenoxy)phosphoryl)-L-alaninate] fall in the same range of IC50: 1000 to 3000 nM for the first, 1000 to 3000 nM for the second.

First: CCCOC(=O)[C@H](C)NP(=O)(Oc1ccccc1)C(F)c1ccc2ccc(C(=O)N[C@H]3CN(C(=O)c4noc5ccc(C)cc45)CC[C@H]4CC[C@@H](C(=O)N5CCN(c6nsc7ccccc67)CC5)N4C3=O)cc2c1 (stereo partly drawn) [Compound 411, propyl (((7-(((5S,8S,10aR)-8-(4-(benzo[d]isothiazol-3-yl)piperazine-1-carbonyl)-3-(5-methylbenzo [d]isoxazole-3-carbonyl)-6-oxodeca-hydropyrrolo [1,2-a][1,5]diazocin-5-yl)carbamoyl)naphthalen-2-yl)fluoromethyl) (phenoxy)phosphoryl)-L-alaninate]
Second: CCCOC(=O)[C@H](C)NP(=O)(Oc1ccccc1)C(F)c1ccc2ccc(C(=O)N[C@H]3CN(C(=O)c4noc5ccc(C)cc45)CC[C@H]4CC[C@@H](C(=O)N5CCOC[C@@H]5c5ccccc5)N4C3=O)cc2c1 (stereo partly drawn) [Compound 412, propyl ((fluoro(7-(((5S,8S,10aR)-3-(5-methylbenzo [d]isoxazole-3-carbonyl)-6-oxo-8-((S)-3-phenyl-morpholine-4-carbonyl)decahydro-pyrrolo [1,2-a][1,5]diazocin-5-yl)carbamoyl)naphthalen-2-yl)methyl) (phenoxy)phosphoryl)-L-alaninate]
The IC50 of the first is higher: > 3000 nM for the first, 100 to 1000 nM for the second. The second is the more potent here.
